In PubChem BioAssay AID1963825 (Molecular Pharmacology Branch, DTP, NCI, 2024):
“And” between values parts separate entries of the source, which are not always exact repeats. Equal entries are not always repeated.

Assay: Anticancer human tumor 997537-175-T-J1-PDC patient-derived colon adenocarcinoma cell line growth inhibition [POLQ]
Conditions: 997537-175-T-J1-PDC complex spheroid viability, combination with POLQ inhibitors; for viability, T/C: stronger effect = lower value
Experimental: Multicellular complex tumor spheroid response to Polymerase (POL) inhibitors (novobiocin, ART-558, RP6685) in combination with a variety of drugs and investigational agents in selected tumor cell lines
The POL inhibitors (novobiocin, ART-558, and RP6685) were evaluated both individually and in combination with standard of care and investigational anticancer small molecules within a complex spheroid model of solid tumors. . Complex spheroids include a stromal component modeled by human endothelial cells (HUVEC) and fibroblasts modeled by human mesenchymal stem cells (MSCs). The concentration ranges selected for each drug and investigational agent were based upon clinically achievable concentrations if the clinical Cmax of the agent was known.
Compounds. The drugs and investigational agents: novobiocin (NSC847541), ART-558 (NSC835418), RP-6685 (NSC848927), peposertib (NSC802822), ceralasertib (NSC780249), elimusertib (NSC800525), camonsertib (NSC841442), AZD-1390 (NSC803789), olaparib (NSC753686), talazoparib (NSC767125), rucaparib (NSC756644), sotorasib (NSC818433), MRTX-1133 (NSC836407), SN-38 (NSC673596), topotecan (NSC609699), epotoside (NSC141540), doxorubicin (NSC123127), gemcitabine (NSC613327), 5-fluorouracil (NSC19893), paclitaxel (NSC125973), vemurafenib (NSC761431), MSA-2 (NSC828583), SN-011 (NSC837082), adavosertib (NSC754352), prexasertib (NSC758257), carboplatin (NSC241240) and oxaliplatin (NSC266046), were obtained from the National Cancer Institute (NCI) Developmental Therapeutics Program Chemical Repository (21). The FDA-approved anticancer drug set is available from the Developmental Therapeutics Program at https://dtp.cancer.gov/organization/dscb/obtaining/. […] The stock solutions were prepared in dimethyl sulfoxide (DMSO, Sigma-Aldrich, St. Louis, MO, cat. D2650), except for the platinum compounds which were prepared in saline (Quality Biological, Gaithersburg, MD, cat. 114-055-101), at 800-fold the tested concentration and stored at -70 degrees C prior to their use. All drugs and investigational agents were tested over a range starting from a high concentration at or near the clinical Cmax and decreasing in half-log increments. If the clinical Cmax for an agent had not been determined, the highest concentration tested was 10 microM, except for SN-38, which was tested at a high concentration of 1 microM.
Cell Culture. All cells were maintained in an incubator at 37 degrees C and 5% CO2 with 95% humidity. The PDC lines were cultured according to standard operating procedures established by the NCI PDMR (https://pdmr.cancer.gov). Table 3 of the manuscript, lists the cell lines along with the number of the three cell types plated to form the mct-spheroids and media for tumor cell growth. After thawing, all PDC lines, except 997537-175-T-J1-PDC and 415267-285-R-J2-PDC, were cultured in Matrigel-coated flasks prepared with a working solution of 1X Ham's F-12 nutrient mix, without supplementation (Thermo Fisher Scientific, cat. 11765054), 100 U/mL penicillin-streptomycin (Thermo Fisher Scientific, cat. 15140122), and 2.5% Matrigel (Corning Inc., Corning, NY, cat. 354248) for the first three passages. The two PDC lines 997537-175-T-J1-PDC and 415267-285-R-J2-PDC were cultured on uncoated flasks. The 857933-349-R-J2-PDC line was cultured in 6C/Colon 1B media containing advanced DMEM/F-12 (Thermo Fisher Scientific, cat. 12634028), 10 mM HEPES (Thermo Fisher Scientific, cat. 15630080), 1X GlutaMAX supplement (Thermo Fisher Scientific, cat. 35050061), 0.1 mg/mL primocin (InvivoGen, San Diego, CA, cat. ant-pm-2), 10% defined fetal bovine serum, heat inactivated (HyClone Laboratories Inc., Logan, UT, cat. SH30070.03HI), 50% L-WRN conditioned media (ATCC, cat. CRL-3276), 1.25 mM N-Acetyl-L-cysteine (Sigma-Aldrich, cat. A9165), 10 mM nicotinamide (Sigma-Aldrich, cat. N0636), 1X B-27 supplement (Thermo Fisher Scientific, cat. 17504044), 1X N-2 supplement (Thermo Fisher Scientific, cat. […]
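Note: luminescence signal used as a surrogate for viable cells; spheroids exposed to drugs for seven days before readout.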

## COc1ccc([C@@H](O)c2cc(-c3ncnc4cc(N5CCOCC5)ccc34)c(F)cc2Cl)nn1
Compound 0.0316 µM
  viability, T/C: 107% and 102% and 108%
Compound 0.1 µM
  viability, T/C: 103% and 94.5% and 93.7%
Compound 0.316 µM
  viability, T/C: 90.6% and 96.5% and 106%
Compound 1 µM
  viability, T/C: 100% and 105% and 104%
Compound 3.16 µM
  viability, T/C: 94.8% and 87.4% and 97.1%
Compound 10 µM
  viability, T/C: 83.2% and 80.4% and 92%
Curve of compound
  IC50: > 10 µM

## COc1cc(C2c3cc4c(cc3C(OC3OC5COC(C)OC5C(O)C3O)C3COC(=O)C23)OCO4)cc(OC)c1O (stereo not given) + Nc1ccc(C#CCN(C(=O)Cc2ncc(C(F)(F)F)cc2C(F)(F)F)c2ccc(F)cc2)nn1
Curve of first compound, second compound 0.0316 µM
  IC50: > 10 µM
Curve of first compound, second compound 0.1 µM
  IC50: > 10 µM
Curve of first compound, second compound 0.316 µM
  IC50: > 10 µM
Curve of first compound, second compound 1 µM
  IC50: > 10 µM
Curve of first compound, second compound 3.16 µM
  IC50: > 10 µM
Curve of first compound, second compound 10 µM
  IC50: 7.77 µM
Second compound 0.0316 µM, first compound 0.0316 µM
  viability, T/C: 101%
Second compound 0.0316 µM, first compound 0.1 µM
  viability, T/C: 105%
Second compound 0.0316 µM, first compound 0.316 µM
  viability, T/C: 93.2%
Second compound 0.0316 µM, first compound 1 µM
  viability, T/C: 94.2%
Second compound 0.0316 µM, first compound 3.16 µM
  viability, T/C: 68%
Second compound 0.0316 µM, first compound 10 µM
  viability, T/C: 67.7%
Second compound 0.1 µM, first compound 0.0316 µM
  viability, T/C: 112%
Second compound 0.1 µM, first compound 0.1 µM
  viability, T/C: 96.4%
Second compound 0.1 µM, first compound 0.316 µM
  viability, T/C: 99.5%
Second compound 0.1 µM, first compound 1 µM
  viability, T/C: 86%
Second compound 0.1 µM, first compound 3.16 µM
  viability, T/C: 65.7%
Second compound 0.1 µM, first compound 10 µM
  viability, T/C: 66.2%
Second compound 0.316 µM, first compound 0.0316 µM
  viability, T/C: 92.4%
Second compound 0.316 µM, first compound 0.1 µM
  viability, T/C: 99.5%
Second compound 0.316 µM, first compound 0.316 µM
  viability, T/C: 86.5%
Second compound 0.316 µM, first compound 1 µM
  viability, T/C: 83.4%
Second compound 0.316 µM, first compound 3.16 µM
  viability, T/C: 75.4%
Second compound 0.316 µM, first compound 10 µM
  viability, T/C: 69.7%
Second compound 1 µM, first compound 0.0316 µM
  viability, T/C: 92.4%
Second compound 1 µM, first compound 0.1 µM
  viability, T/C: 96.9%
Second compound 1 µM, first compound 0.316 µM
  viability, T/C: 97.1%
Second compound 1 µM, first compound 1 µM
  viability, T/C: 81%
Second compound 1 µM, first compound 3.16 µM
  viability, T/C: 61%
Second compound 1 µM, first compound 10 µM
  viability, T/C: 67.7%
Second compound 3.16 µM, first compound 0.0316 µM
  viability, T/C: 91.1%
Second compound 3.16 µM, first compound 0.1 µM
  viability, T/C: 93.7%
Second compound 3.16 µM, first compound 0.316 µM
  viability, T/C: 94.6%
Second compound 3.16 µM, first compound 1 µM
  viability, T/C: 82.4%
Second compound 3.16 µM, first compound 3.16 µM
  viability, T/C: 57.8%
Second compound 3.16 µM, first compound 10 µM
  viability, T/C: 54.3%
Second compound 10 µM, first compound 0.0316 µM
  viability, T/C: 96%
Second compound 10 µM, first compound 0.1 µM
  viability, T/C: 104%
Second compound 10 µM, first compound 0.316 µM
  viability, T/C: 99.5%
Second compound 10 µM, first compound 1 µM
  viability, T/C: 91%
Second compound 10 µM, first compound 3.16 µM
  viability, T/C: 61.4%
Second compound 10 µM, first compound 10 µM
  viability, T/C: 46.8%

## CC(C)n1c(=O)n(C)c2cnc3cc(F)c(-c4ccc(OCCCN5CCCCC5)nc4)cc3c21
Compound 0.0316 µM
  viability, T/C: 90.1% and 93% and 37.9%
Compound 0.1 µM
  viability, T/C: 103% and 96% and 38.9%
Compound 0.316 µM
  viability, T/C: 100% and 83.5% and 34.2%
Compound 1 µM
  viability, T/C: 97.9% and 102% and 32.9%
Compound 3.16 µM
  viability, T/C: 85.7% and 92.1% and 37.8%
Compound 10 µM
  viability, T/C: 73.3% and 87.2% and 43.2%
